According to patent US20230067942A1, “IMPROVEMENT IN PULMONARY ARTERIAL […] INHALED NITRIC OXIDE (iNO) TREATMENT” (BELLEROPHON THERAPEUTICS, priority 2020, published 2023):
“Also recorded” adds a separate entry of the source.

Tested on: patients with PH associated with PF (PH-PF)
Test: Acute escalating doses of pulsed iNO; hemodynamics by right heart catheterization (RHC) in PH-PF patients
Assay type: in vivo, human
Settings: for Pulmonary arterial compliance (PAC), change from baseline: nine PH-PF patients on oxygen, median change
Protocol: FIG. 1 depicts the study design for acute iNO dose escalation. Nine PH-PF subjects were administered escalating doses of pulsed iNO (iNO30 to iNO75 mcg/kg IBW/hrs) with continuous oxygen.
FIG. 2, comprising FIGS. 2A-2C, are graphs depicting pulmonary arterial compliance, or PAC (FIG. 2A), pulmonary vascular resistance, or PVR (FIG. 2B), and mean pulmonary arterial pressure, or mPAP (FIG. 2C) for inhaled nitric oxide at 30 mcg/kg IBW/hr (iNO30), 45 mcg/kg IBW/hr (iNO45), and 75 mcg/kg IBW/hr (iNO75). The data is based on nine pulmonary hypertension—interstitial lung disease (ILD) patients. Bar graphs represent median change from baseline at each assessment for all available subjects. […] Statistical analysis was based on the Wilcoxon Rank Test.
This study was performed to determine whether increasing doses of pulsed iNO can improve PAC in patients with PH-PF on long-term oxygen therapy with intermediate or high probability of pulmonary hypertension (PH) as determined by echocardiography. Nine patients were acutely challenged with escalating doses of iNO (iNO30, iNO45, and iNO75) over a 90 minute period. Each dose was administered for 10 minutes, with 10 minute “washout” periods between doses. Baseline measurements were taken from timepoint 0-30 minutes. iNO30 was dosed at 30 mcg/kg IBW/hrs from timepoint 30-40 minutes, iNO45 at 45 mcg/kg IBW/hrs from timepoint 50-60 minutes, and iNO75 was dosed at 75 mcg/kg IBW/hrs from timepoint 70-80 minutes (see FIG. 1). The demographics of the patient population is described in Table 1, and Baseline Hemodynamics in Table 2, below.
PAC was derived by stroke volume divided by (SPAP-DPAP) collected during right heart catheterization (RHC). Patients were on sufficient supplemental oxygen at baseline to maintain an SpO2 of at least 92% at rest. Upon completion of the RHC, subjects were offered the opportunity to continue on to chronic iNO therapy in an extension study. 6 minute walk distance (6MWD) was assessed prior to RHC treatment in the extension study.

[1] = all subjects, doses not separated
[2] = iNO30 (30 mcg/kg IBW/hr, pulsed, 10 min), nine PH-PF patients, Wilcoxon Rank Test
[3] = iNO45 (45 mcg/kg IBW/hr, pulsed, 10 min), nine PH-PF patients, Wilcoxon Rank Test
[4] = iNO75 (75 mcg/kg IBW/hr, pulsed, 10 min), nine PH-PF patients, Wilcoxon Rank Test

[N]=O [iNO, nitric oxide]
PAC on pulsed iNO versus average baseline [1]: increase | PVR on pulsed iNO versus average baseline [1]: reduction; also recorded: statistically and clinically significant improvements | mPAP on pulsed iNO versus average baseline [1]: statistically and clinically significant improvements; also recorded: reduction | PAC on pulsed iNO versus average baseline (all subjects, doses not separated, listed as Inhaled NO): improves PAC | Pulmonary arterial compliance (PAC), change from baseline (iNO30 (30 mcg/kg IBW/hr, pulsed, 10 min), Wilcoxon Rank Test): improved with significance | Mean pulmonary arterial pressure (mPAP), change from baseline [2]: statistically significant improvement; also recorded: improved with significance | Pulmonary vascular resistance (PVR), change from baseline [2]: statistically significant improvement; also recorded: improved with significance | Pulmonary arterial compliance (PAC), change from baseline (iNO45 (45 mcg/kg IBW/hr, pulsed, 10 min), Wilcoxon Rank Test): improved with significance | Mean pulmonary arterial pressure (mPAP), change from baseline [3]: statistically significant improvement; also recorded: improved with significance | Pulmonary vascular resistance (PVR), change from baseline [3]: statistically significant improvement; also recorded: improved with significance | Pulmonary vascular resistance (PVR), further change between iNO30 and iNO45 doses (iNO45 versus iNO30, nine PH-PF patients, Wilcoxon Rank Test): additional statistically significant improvement; also recorded: further improved with significance | Pulmonary arterial compliance (PAC), change from baseline (iNO75 (75 mcg/kg IBW/hr, pulsed, 10 min), Wilcoxon Rank Test): improvement in PAC | Mean pulmonary arterial pressure (mPAP), change from baseline [4]: statistically significant improvement; also recorded: improved with significance | Pulmonary vascular resistance (PVR), change from baseline [4]: statistically significant improvement; also recorded: improved with significance
